According to patent publication US9980986B2, “Methods of producing pancreatic hormones” (ViaCyte, Inc., priority 2006, dated 2018):

B1: Wnt3a: wingless-type MMTV integration site family member 3A (protein, UniProt P56704 19-352, looked up)
Protein Wnt-3a: SYPIWWSLAVGPQYSSLGSQPILCASIPGLVPKQLRFCRNYVEIMPSVAEGIKIGIQECQHQFRGRRWNCTTVHDSLAIFGPVLDKATRESAFVHAIASAGVAFAVTRSCAEGTAAICGCSSRHQGSPGKGWKWGGCSEDIEFGGMVSREFADARENRPDARSAMNRHNNEAGRQAIASHMHLKCKCHGLSGSCEVKTCWWSQPDFRAIGDFLKDKYDSASEMVVEKHRESRGWVETLRPRYTYFKVPTERDLVYYEASPNFCEPNPETGSFGTRDRTCNVSSHGIDGCDLLCCGRGHNARAERRREKCRCVFHWCCYVSCQECTRVYDVHTCK

How the values were obtained:
[1] = test system: activin receptor-like (ALK) receptor; assay: TGF-beta receptor family inhibitor added to cell cultures at stage 2 of differentiation; type: cell-based, human; conditions: about 2.5, 5 and 10 μM added to the cell cultures at stage 2
Source text: The differentiation culture conditions were substantially similar to that described in d'Amour et al. 2006. d'Amour et al. 2006 describe a 5 step differentiation protocol: stage 1 (definitive endoderm; d 1-d 4), stage 2 (primitive gut tube or foregut endoderm; d 5 to d 8), stage 3 (posterior foregut or Pdx1 endoderm; d 9 to d 12), stage 4 (pancreatic endoderm, or pancreatic epithelium and endocrine precursor; d 13 to d 15) and stage 5 (hormone expressing endocrine cell, d 16 or more). As in d'Amour et al. 2006, the undifferentiated cells were cultured for one day (d 1) in RPMI containing 100 ng/ml Activin A (R&D Systems) and 25 ng/ml recombinant human WNT3a (R&D Systems), two days (d 2 and d 3) in RPMI medium containing 0.2% fetal bovine serum (FBS, Specialty Media) and 100 ng/ml Activin A. The embodiments described herein were slightly modified beginning at day 3 (d 3). The cells from day 3 (definitive endoderm) were cultured for three days (d 4 to d 6; foregut endoderm) in RPMI medium containing 2% FBS, 50 ng/ml recombinant human KGF/FGF7 (R&D Systems), and 0.25 μM KAAD-cyclopamine (Toronto Research Chemicals). Activin is removed from cells at this stage. […]

[2] = test system: Human embryonic stem cell lines; assay: hESC differentiation by 6-step 15-day protocol with or without Wnt3a in step 1, real-time quantitative PCR; type: cell-based; conditions: Wnt3a 25 ng/mL added during the first step
Procedure: Human embryonic stem cell lines were also differentiated for 15 days via a 6-step protocol to achieve islet hormone-expressing cells. The first step comprised 3 days differentiation with either; i) activin A (100 ng/ml) or ii) activin A (100 ng/ml) and Wnt3a (25 ng/mL) to robustly produce DE (D'Amour, K., et al., Nature Biotechnology 23, 1534-1541, (2005)). Step 2 comprised 3 days differentiation in RPMI with 2% FBS containing FGF10 (50 ng/mL) and KAAD-cyclopamine (0.5 μM). Step 3 comprised 2 days differentiation in CMRL with B27 supplement (1:100) containing FGF10 (50 ng/mL), KAAD-cyclopamine (0.5 μM) and retinoic acid (2 μM). Step 4 comprised 2 days differentiation in CMRL with B27 supplement (1:100) containing retinoic acid (2 μM) and DAPT (1 μM). Step 5 comprised 2 days differentiation in CMRL with B27 supplement (1:100) containing DAPT (1 μM) and exendin 4 (40 ng/mL). Step 6 comprised 3 days differentiation in CMRL with B27 supplement (1:100) containing exendin 4 (40 ng/mL). Duplicate samples were taken from each plate at multiple time points and gene expression was analyzed by real-time quantitative PCR.

Molecule	Effect on cell differentiation [1]	Effect on endocrine cell differentiation [2]
NC(=O)c1ccc(-c2nc(-c3ccc4c(c3)OCO4)c(-c3ccccn3)[nH]2)cc1 [SB-431542]	potentiated cell differentiation	–
B1	–	marked enhancement of endocrine cell differentiation
